Counter-ions that a name gives are not always drawn.
Test system: anesthetized rats
Test: Anesthetized rat spirometry screening assay (ventilatory activity, minute volume)
Format: in vivo
Conditions: increase in minute volume (VE); for change in vivo at 0.3 mg/kg: 0.3 mg/kg IV bolus, read-out: VE % Inc @ 0.3 mg/kg IV; for change in vivo at 3 mg/kg: 3.0 mg/kg IV bolus, read-out: VE % Inc @ 3.0 mg/kg IV
Method: Anesthetized rats provide a quick method of screening compounds for respiratory and cardiovascular activity.
Rats were initially anesthetized with 3% isoflurane (inhaled) and femoral artery and vein cannulas were surgically inserted. Once cannulated, the rats were transitioned to urethane anesthesia (1.5 g/kg; i.v.) and a tracheal cut-down was performed. After placing the tracheal cannula, it was connected to a pneumotachometer to record respiratory airflow from which respiratory rate (RR), tidal volume (VT), and their product minute volume (MV, also termed VE) were derived. After the surgical preparation was complete, animals were allowed to stabilize for 30 minutes while respiratory rate, tidal volume, minute volume, blood pressure and heart rate were recorded continuously. Arterial blood gases (ABG) were obtained from arterial blood collected from the femoral artery. ABG measurements were taken before and 6 minutes after vehicle and each dose of compound administered. Compounds being screened were administered via bolus injections through the venous cannula followed by a saline flush (total time of administration is approximately 30 seconds), and the animal was monitored for at least 6 minutes for changes in cardiovascular efforts. Compounds were prepared in formulations identified to ensure optimal solubility. As such, vehicle controls were matched for the formulation of each compound tested. Dosing of the compounds being screened was conducted at 0.1 and/or 0.3 mg/kg and/or 3 mg/kg The next dose was not administered until all cardiovascular and respiratory measures had returned to baseline levels. The positive control compounds used were N-[4,6-di-(n-propylamino)-[1,3,5]triazin-2-yl]-N,O-dimethyl-hydroxylamine or N-[2,6-di-(n-propylamino)-[1,3]pyrimidin-4-yl]-N,O-dimethyl-hydroxylamine (both administered at the end of each screening experiment (0.3 mg/kg dose) to validate the experiment and also to serve as a measure with which the compound being screened could be compared.
Data were analyzed by collecting cardiovascular and respiratory data in 30 second averages (BINs). Data were plotted 2 minutes before challenge and then 6 minutes after challenge.

SMILES: C=C(C)CNc1nc(NC)c2nc(NC[C@@H](C)O)nc(NC)c2n1 [Compound 158, (R)-1-[6-(2-Methyl-allylamino)-4,8-bis-methylamino-pyrimido[5,4-d]-pyrimidin-2-ylamino]-propan-2-ol]
- change in vivo at 0.3 mg/kg: 68%
- change in vivo at 3 mg/kg: 120%

SMILES: CCNc1nc(NC)nc2c(NCCCO)nc(NC)nc12 [Compound 67a, 3-(8-Ethylamino-2,6-bis-methylamino-pyrimido[5,4-d]-pyrimidin-4-ylamino)-propan-1-ol Hydrochloride]
- change in vivo at 0.3 mg/kg: 7%
- change in vivo at 3 mg/kg: 136%

SMILES: CCCNc1nc(NC)c2nc(NCC(O)CC)nc(NC)c2n1 (stereo not drawn) [Compound 117, 1-(4,8-Bis-methylamino-6-propylamino-pyrimido[5,4-d]pyrimidin-2-ylamino)-butan-2-ol]
- change in vivo at 0.3 mg/kg: 150%
- change in vivo at 3 mg/kg: 162%

SMILES: CNc1nc(NCC(C)(C)O)c2nc(NC)nc(NCC3CC3)c2n1 [Compound 46a, 1-[8-(Cyclopropylmethyl-amino)-2,6-bis-methylamino-pyrimido[5,4-d]pyrimidin-4-ylamino]-2-methyl-propan-2-ol Hydrochloride]
- change in vivo at 0.3 mg/kg: 79%
- change in vivo at 3 mg/kg: 203%

SMILES: CCCNc1nc(NC)nc2c(N[C@H]3c4ccccc4C[C@H]3O)nc(NC)nc12 [Compound 79, (1S,2R)-1-(2,6-Bis-methylamino-8-propylamino-pyrimido[5,4-d]pyrimidin-4-ylamino)-indan-2-ol]
- change in vivo at 0.3 mg/kg: 56%
- change in vivo at 3 mg/kg: 162%

SMILES: CC[C@@H](C)Nc1nc(NC)c2nc(NCC(C)(C)O)nc(NC)c2n1 [Compound 99, 1-[6-((R)-sec-Butylamino)-4,8-bis-methylamino-pyrimido[5,4-d]-pyrimidin-2-ylamino]-2-methyl-propan-2-ol]
- change in vivo at 0.3 mg/kg: 25%
- change in vivo at 3 mg/kg: 61%

SMILES: C=C(C)CNc1nc(NCC)c2nc(NC[C@H](C)O)nc(NCC)c2n1 [Compound 175, (S)-1-[4,8-Bis-ethylamino-6-(2-methyl-allylamino)-pyrimido[5,4-d]-pyrimidin-2-ylamino]-propan-2-ol]
- change in vivo at 0.3 mg/kg: 75%
- change in vivo at 3 mg/kg: 134%

SMILES: CNc1nc(NC[C@H](C)O)nc2c(NC)nc(NCC3CC3)nc12 [Compound 142, (S)-1-[6-(Cyclopropylmethyl-amino)-4,8-bis-methylamino-pyrimido[5,4-d]pyrimidin-2-ylamino]-propan-2-ol]
- change in vivo at 0.3 mg/kg: 2%
- change in vivo at 3 mg/kg: 62%

SMILES: CNc1nc(NC[C@H](C)O)nc2c(NC)nc(N)nc12 [Compound 152, (S)-1-(6-Amino-4,8-bis-methylamino-pyrimido[5,4-d]-pyrimidin-2-ylamino)-propan-2-ol]
- change in vivo at 0.3 mg/kg: 7%
- change in vivo at 3 mg/kg: 89%

SMILES: CCCNc1nc(NC)nc2c(NC(C)C(C)O)nc(NC)nc12 (stereo not drawn) [Compound 26a, 3-(2,6-Bis-methylamino-8-propylamino-pyrimido[5,4-d]pyrimidin-4-ylamino)-butan-2-ol Hydrochloride]
- change in vivo at 0.3 mg/kg: 39%
- change in vivo at 3 mg/kg: 143%

SMILES: CCCNc1nc(NC)nc2c(NCC(O)C(F)(F)F)nc(NC)nc12 (stereo not drawn) [Compound 22a, 3-(2,6-Bis-methylamino-8-propylamino-pyrimido[5,4-d]pyrimidin-4-ylamino)-1,1,1-trifluoro-propan-2-ol Hydrochloride]
- change in vivo at 0.3 mg/kg: 102%

SMILES: C#CCNc1nc(NC)nc2c(NCCO)nc(NC)nc12 [Compound 58a, 2-(2,6-Bis-methylamino-8-prop-2-ynylamino-pyrimido[5,4-d]pyrimidin-4-ylamino)-ethanol Hydrochloride]
- change in vivo at 0.3 mg/kg: 10%

SMILES: CCCNc1nc(NCC(F)F)nc2c(NCC(C)(C)O)nc(NCC(F)F)nc12 [Compound 33a, 1-[2,6-Bis-(2,2-difluoro-ethylamino)-8-propylamino-pyrimido[5,4-d]-pyrimidin-4-ylamino]-2-methyl-propan-2-ol Hydrochloride]
- change in vivo at 0.3 mg/kg: 23%
- change in vivo at 3 mg/kg: 115%

Reference: patent US10294228B2, “Breathing control modulating compounds, and methods of making and using same” (NEURAD LTD., priority 2015, dated 2019)
